From patent US20220313728A1 (priority 2021, published 2022)
“Also recorded” adds a separate entry of the source.

Experiments:
[1] = system: patients with severe TRMD; assay: Phase 2 double-blind randomized placebo-controlled crossover trial, single 1-hour inhalation; Hamilton Depression Rating Scale (HDRS-21, primary outcome); assay type: in vivo, human; conditions: for Estimated difference between 25% and placebo (HDRS-21) / Estimated difference between 50% and placebo (HDRS-21): single 1-hour inhalation; for Difference vs placebo (HDRS-21): 2 weeks, following a single treatment; for Estimated difference between 50% and 25% (HDRS-21): 50% vs 25% nitrous oxide; for Patients in remission (HDRS ≤7 points) / Patients with treatment response (reduction in HDRS-21 points ≥50%): pre-treatment HDRS-21 >19; for Estimated difference between placebo and the combined 25% and 50% groups (HDRS-21): combined 25% and 50% nitrous oxide
Excerpt: (§1) The study was a single-center, double-blind, randomized placebo-controlled crossover trial. All subjects underwent three one-hour inhalation sessions in random order, each separated by at least 4 weeks. The sessions included: placebo (0% N20), 25% N20, and 50% N20 balanced with air/oxygen. Blinding was executed by separating locations and teams for inhalation treatments and psychiatric evaluations. Only the anesthesia team administering the inhalation treatments was aware of study group assignment; all other participants, including patients and raters, were blinded. Likewise, the study setup was identical for all sessions, and gas flow meters were concealed, making inadvertent unblinding unlikely. The study was approved by the Washington University in St. Louis Institutional Review Board, and all patients provided written, informed consent. The trial was registered at clinicaltrials.gov (NCT03283670).
Patients were recruited from an existing database of TRMD patients identified through participation in a secondary referral clinic for TRMD at Washington University Department of Psychiatry, as well as from the “Volunteers for Health” patient pool (individuals with various medical/psychiatric conditions who volunteer to participate in clinical research) within Washington University School of Medicine. […] Patients were instructed to continue their current standard of care MDD treatment and to maintain a stable psychotropic medication dosage or psychotherapy regimen for 4 weeks prior to initiation of the study and throughout the study. Further, patients were instructed not to modify their antidepressant treatments during the three month course of the trial (i.e., discouraged from adding new antidepressants or modifying existing antidepressant dosages).
Following the in-person screen, each of the three treatment sessions consisted of […]: pre-inhalation mood assessment, inhalation, and post-inhalation follow-up sessions at 22-28 hours, 1 week, and 2 weeks. An additional assessment was completed 4 weeks following the final inhalation treatment.
(§2) All three inhalation sessions were scheduled for one hour. […] Except for the choice of inhalational gas admixture, treatment sessions were otherwise identical. The gas mix was administered via a standard anesthesia facemask through tubing connected to the anesthesia machine or an FDA-approved Porter/Praxair MXR breathing circuit. A small sample connector line was inserted into the facemask allowing the measurement of inhaled and exhaled gas concentrations. […] Patients were monitored during and after the treatment according to American Society of Anesthesiologists standards which include continuous 3-lead ECG, pulse oximetry, non-invasive blood pressure, and end tidal CO2 measurement under the supervision of an attending-level anesthesiologist. After the one-hour treatment session, patients were monitored in a recovery room for up to one hour at which time a study team physician determined whether the patient met criteria for discharge.
(§3) Data were collected at (a) baseline (prior to each inhalation session), (b) 2-hours, (c) 24 hours, (d) 1 week, and (e) 2 weeks after inhalation. Efficacy of the inhalation treatment on mood was measured using the following: Hamilton Depression Rating Scale 21-item (HDRS-21; primary outcome); Montgomery-Asberg Depression Rating Scale (MADRS); Quick Inventory of Depressive Symptomology-Self Report (QIDS-SR); and the Profile of Mood States 2nd Edition (POMS-2). Other behavioral assessments included an assessment of dissociation, the Clinical Administered Dissociative States Scale 28-item (CADSS-28); and an assessment for the emergence of psychosis, the Brief Psychiatric Rating Scale 18-item (BPRS-18). These mood and behavioral assessments were performed by a blinded member of the psychiatry study team. Additionally, adequacy of the blind was assessed by a Blinding Questionnaire given after completion of each inhalation session.

[2] = system: patients with severe TRMD; assay: Same trial; Montgomery-Asberg Depression Rating Scale (MADRS); assay type: in vivo, human; conditions: 25% nitrous oxide
Excerpt: (§4) The trial was registered at clinicaltrials.gov (NCT03283670).
(§5) Patients were recruited from an existing database of TRMD patients identified through participation in a secondary referral clinic for TRMD at Washington University Department of Psychiatry, as well as from the “Volunteers for Health” patient pool (individuals with various medical/psychiatric conditions who volunteer to participate in clinical research) within Washington University School of Medicine. Inclusion criteria were a) adults 18-75 years of age; b) current diagnosis of unipolar major depressive disorder (MDD) without psychosis as confirmed by the Mini International Neuropsychiatric Interview; c) a score of ≥19 on the Montgomery-Asberg Depression Rating Scale (MADRS); d) documented lifetime failure to respond to ≥3 adequate dose/duration antidepressant treatment trials, including ≥1 antidepressant medication failure(s) in the current depressive episode; and e) good command of the English language. […] Patients were instructed to continue their current standard of care MDD treatment and to maintain a stable psychotropic medication dosage or psychotherapy regimen for 4 weeks prior to initiation of the study and throughout the study. […]

[3] = system: patients with severe TRMD; assay: Same trial; Quick Inventory of Depressive Symptomology-Self Report (QIDS-SR); assay type: in vivo, human
Excerpt: as §4, §5

[4] = system: patients with severe TRMD; assay: Same trial; Profile of Mood States 2nd Edition (POMS-2); assay type: in vivo, human
Excerpt: as §4, §5

[5] = system: patients with severe TRMD; assay: Same trial; treatment safety, monitoring of adverse events; conditions: for Stomach virus: >24 hours after inhalation session, count (%)
Excerpt: as §1, §2
as §3, with “session. Treatment safety was assessed by monitoring adverse events (AEs) related to (a) cardiovascular status; (b) respiratory function; (c) central nervous system; and (d) psychiatric symptoms, particularly the presence of psychotic symptoms.” for “session.”
Finally, we also tested for a linear dose-response relation. Differences between categorical outcomes (response, remission) were tested by Fisher-Exact test; relative risk and 95% confidence intervals were calculated using the Koopman asymptotic score. Differences in the count of adverse events were compared by the Kruskal-Wallis test. All reported p-values are two-sided and a p-value of <0.05 was considered statistically significant. All analyses were conducted using SuperMix (Scientific Software International, Lincolnwood Ill.).

patients with TRMD = conditions: 50% nitrous oxide, one one-hour inhalation; cited from earlier work
[6] = system: Major Depressive Disorder; conditions: 50% nitrous oxide; cited from earlier work
bothersome tinnitus = conditions: similar clinical trial; 85% of patients correctly guessed the treatment arm; cited from earlier work
[7] = system: adult and geriatric patients, milder depression; assay: Gibbons et al. 2012 synthesis of 37 placebo controlled double-blind randomized trials, HDRS-17 outcome; assay type: in vivo, human; conditions: 6 weeks; converted from HDRS-17 with the 24% increased range of the 21 item scale; pooled fluoxetine and venlafaxine
[8] = system: adult and geriatric patients, milder depression; conditions: 6 weeks; pooled data of 37 trials of fluoxetine and venlafaxine; cited from earlier work
[9] = after 50% nitrous oxide, 5/12 patients

**Q.** Which results are given for `[N-]=[N+]=O` [nitrous oxide]?
**A.** Estimated difference between 25% and placebo (HDRS-21) ([1]; 25% nitrous oxide, 2 hours): −0.75 points; Estimated difference between 25% and placebo (HDRS-21) ([1]; 25% nitrous oxide, 24 hours): −1.41 points; Estimated difference between 25% and placebo (HDRS-21) ([1]; 25% nitrous oxide, week 1): −4.35 points; Estimated difference between 25% and placebo (HDRS-21) ([1]; 25% nitrous oxide, week 2): −5.19 points; Difference vs placebo (HDRS-21) ([1]; 25% nitrous oxide): −5.19 units; Effect size d, 25% vs placebo (HDRS-21) ([1]; 25% nitrous oxide, 2 hours): 0.16; Effect size d, 25% vs placebo (HDRS-21) ([1]; 25% nitrous oxide, 24 hours): 0.21; Effect size d, 25% vs placebo (HDRS-21) ([1]; 25% nitrous oxide, week 1): 0.38; Effect size d, 25% vs placebo (HDRS-21) ([1]; 25% nitrous oxide, week 2): 0.62; Estimated difference between 50% and placebo (HDRS-21) ([1]; 50% nitrous oxide, 2 hours): −0.87 points; Estimated difference between 50% and placebo (HDRS-21) ([1]; 50% nitrous oxide, 24 hours): −1.93 points; Estimated difference between 50% and placebo (HDRS-21) ([1]; 50% nitrous oxide, week 1): −2.44 points; Estimated difference between 50% and placebo (HDRS-21) ([1]; 50% nitrous oxide, week 2): −7.00 points; Difference vs placebo (HDRS-21) ([1]; 50% nitrous oxide): −7.00 HDRS-21 units; Effect size d, 50% vs placebo (HDRS-21) ([1]; 50% nitrous oxide, 2 hours): 0.29; Effect size d, 50% vs placebo (HDRS-21) ([1]; 50% nitrous oxide, 24 hours): 0.32; Effect size d, 50% vs placebo (HDRS-21) ([1]; 50% nitrous oxide, week 1): 0.35; Effect size d, 50% vs placebo (HDRS-21) ([1]; 50% nitrous oxide, week 2): 0.85; Estimated difference between 50% and 25% (HDRS-21) ([1]; 2 hours): 0.11 points; Estimated difference between 50% and 25% (HDRS-21) ([1]; 24 hours): 0.42 points; Estimated difference between 50% and 25% (HDRS-21) ([1]; week 1): 1.91 points; Estimated difference between 50% and 25% (HDRS-21) ([1]; week 2): −1.67 points; Patients in remission (HDRS ≤7 points) ([1]; after 25% nitrous oxide, 2/9 patients): 22.2%; Patients with treatment response (reduction in HDRS-21 points ≥50%) ([1]; after 25% nitrous oxide, 3/9 patients): 33.3%; Patients in remission (HDRS ≤7 points) [1, 9]: 41.7%; Patients with treatment response (reduction in HDRS-21 points ≥50%) [1, 9]: 41.7%; Estimated difference between placebo and the combined 25% and 50% groups (HDRS-21) ([1]; 2 hours): −0.81 points; Estimated difference between placebo and the combined 25% and 50% groups (HDRS-21) ([1]; 24 hours): −1.67 points; Estimated difference between placebo and the combined 25% and 50% groups (HDRS-21) ([1]; week 1): −3.35 points; Estimated difference between placebo and the combined 25% and 50% groups (HDRS-21) ([1]; week 2): −6.13 points; Median HDRS-21 score at study completion ([1]; entire 3-month course (25%, 50% nitrous oxide and placebo sessions), completers n=20, baseline median 20.5): 8.5 (IQR 2.0-16.0); Median change in HDRS-21 from baseline to study completion ([1]; entire 3-month course (25%, 50% nitrous oxide and placebo sessions), n=20, IQR −3.3 to −14.0): −11.0 points; Patients in remission at study completion (HRDS≤7 points) ([1]; entire 3-month course, n=20, 8/20): 40%; Patients with treatment response at study completion (reduction in HRDS-21 points ≥50%) ([1]; entire 3-month course, n=20, 11/20): 55%; Patients with improvement in depressive symptoms by at least one category at study completion ([1]; entire 3-month course, n=20, 17/20): 85%; Median reduction of HDRS-21 ([1]; entire 3-month treatment regimen with 2 treatments with nitrous oxide): 11 HDRS-21 points; Dose-response relation (HDRS-21 decrease) ([1]; week 2): −3.51 per 25% increase in dose; MADRS efficacy [2]: not significant; Results on the QIDS scale ([3]; 25% nitrous oxide): non-significant; also recorded: not statistically significant; Results on the QIDS scale ([3]; 50% nitrous oxide, except at 2 weeks): not statistically significant; Results on the POMS scale ([4]; 25% nitrous oxide): non-significant; Results on the POMS scale ([4]; 50% nitrous oxide): significant at 2 weeks; Stomach virus ([5]; 25% N2O (n = 20)): 0; Stomach virus ([5]; 50% N2O (n = 23)): 0; Car Crash (minor) ([5]; human, in vivo): 1 (4%); Fainting Spell ([5]; human, in vivo): 1 (4%); Haziness ([5]; human, in vivo): 3 (13%); Haziness ([5]; human, in vivo, 1 h): 1(5%); Serious adverse events ([5]; in vivo): None; Effect on depressive symptoms in patients with TRMD (earlier study) (patients with TRMD): improved depressive symptoms; also recorded: rapid antidepressant effects; Persistence of efficacy after a single inhalation (case report) [6]: beyond one month; Treatment effect for bothersome tinnitus (bothersome tinnitus): did not observe a treatment effect

**Q.** For `COc1ccc(C(CN(C)C)C2(O)CCCCC2)cc1` (centres unmarked) [venlafaxine], which “Equivalent difference on the HDRS-21” value [7] is on record?
**A.** Its value is −3.16 unit.

**Q.** And the “Estimated separation between active treatment and placebo control (HDRS-17)” value [8]?
**A.** The value was −2.55 HDRS-17 units.

**Q.** With `CNCCC(Oc1ccc(C(F)(F)F)cc1)c1ccccc1` (centres unmarked) [fluoxetine] as the molecule, how does the “Equivalent difference on the HDRS-21” value [7] read?
**A.** Its value is −3.16 unit.

**Q.** What about the “Estimated separation between active treatment and placebo control (HDRS-17)” value [8] of the same molecule?
**A.** The value was −2.55 HDRS-17 units.
